Reference: ChEMBL document CHEMBL1201862, “PubChem BioAssay data set” (2004)
Calls of active or inactive are those of the source.

Key:
[1] = THP-1 cell cytotoxicity, dose response, cytotoxicity control for non-replicating M. tuberculosis project (AID 489025); format: functional
[2] = HepG2 cell cytotoxicity, dose response, cytotoxicity control for non-replicating M. tuberculosis project (AID 489018); format: functional; details: Mycobacterium tuberculosis
cells = format: functional
Hexokinase = Hexokinase (Trypanosoma brucei, UniProt Q38C41); assay: Confirmation assay for inhibitors of Trypanosoma brucei hexokinase 1-Analogue-first series. [Related pubchem assays (depositor defined):AID1430, AID1632, AID2516, AID2560, AID2579, AID2600, AID449725, AID492951]; format: functional
Hexokinase, sequence (Q38C41 whole entry, the tested form may be a part): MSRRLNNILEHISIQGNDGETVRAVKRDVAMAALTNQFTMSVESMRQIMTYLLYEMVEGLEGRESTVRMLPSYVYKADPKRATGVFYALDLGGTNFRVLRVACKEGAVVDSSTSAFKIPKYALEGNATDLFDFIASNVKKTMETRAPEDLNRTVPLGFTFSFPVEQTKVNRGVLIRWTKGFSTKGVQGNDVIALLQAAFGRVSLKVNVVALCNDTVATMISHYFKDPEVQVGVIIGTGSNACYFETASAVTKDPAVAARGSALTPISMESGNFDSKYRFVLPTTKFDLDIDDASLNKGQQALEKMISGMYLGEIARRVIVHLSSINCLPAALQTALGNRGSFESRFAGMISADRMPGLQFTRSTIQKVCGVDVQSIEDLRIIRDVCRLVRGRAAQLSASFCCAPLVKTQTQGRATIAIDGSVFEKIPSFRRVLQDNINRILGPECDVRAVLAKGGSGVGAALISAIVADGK

[3] = biological target: T1, RNA-binding protein pos-1 (Caenorhabditis elegans, UniProt G5EF15); assay: disruptors of C. elegans POS-1 RNA interaction – biochemical, fluorescence polarization, dose response (AID 1964);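 note: purified POS-1 fused to maltose binding protein made in E. coli; potency of compounds blocking POS-1 binding to fluorescent RNA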
T1 sequence (G5EF15 whole entry): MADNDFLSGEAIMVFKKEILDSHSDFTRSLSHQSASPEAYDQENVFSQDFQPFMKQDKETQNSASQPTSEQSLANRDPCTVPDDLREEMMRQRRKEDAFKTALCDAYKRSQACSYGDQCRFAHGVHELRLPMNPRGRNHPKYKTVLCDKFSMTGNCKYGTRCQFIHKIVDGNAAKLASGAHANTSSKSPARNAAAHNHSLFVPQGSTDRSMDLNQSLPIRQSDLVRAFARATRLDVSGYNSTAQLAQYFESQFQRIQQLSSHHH

[4] = biological target: T2, Zinc finger protein mex-5 (Caenorhabditis elegans, UniProt Q9XUB2); assay: potency of MEX-5 RNA-binding blockers – biochemical, C. elegans, fluorescence polarization, dose response (AID 1960)
T2 sequence (Q9XUB2 whole entry): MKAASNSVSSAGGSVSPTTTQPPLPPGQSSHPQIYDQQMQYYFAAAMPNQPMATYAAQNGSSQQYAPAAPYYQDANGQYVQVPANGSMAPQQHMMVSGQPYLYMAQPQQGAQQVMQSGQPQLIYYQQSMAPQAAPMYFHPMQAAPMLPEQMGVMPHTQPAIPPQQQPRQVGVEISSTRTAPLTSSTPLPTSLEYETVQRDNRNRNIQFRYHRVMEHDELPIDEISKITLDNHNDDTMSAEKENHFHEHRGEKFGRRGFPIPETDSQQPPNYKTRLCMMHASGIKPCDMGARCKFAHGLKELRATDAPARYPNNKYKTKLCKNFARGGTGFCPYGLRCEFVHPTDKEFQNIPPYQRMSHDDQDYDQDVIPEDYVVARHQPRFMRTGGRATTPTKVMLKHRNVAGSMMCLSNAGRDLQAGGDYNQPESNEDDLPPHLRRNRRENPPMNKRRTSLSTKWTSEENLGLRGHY

[5] = biological target: Induced myeloid leukemia cell differentiation protein Mcl-1 (Homo sapiens, UniProt Q07820); assay: blockers of MCL1 binding to BIM peptide – biochemical, fluorescence polarization, BIM-BH3 peptide, 1536-well, dose response (AID 2217)
Induced myeloid leukemia cell differentiation protein Mcl-1, sequence (Q07820 whole entry): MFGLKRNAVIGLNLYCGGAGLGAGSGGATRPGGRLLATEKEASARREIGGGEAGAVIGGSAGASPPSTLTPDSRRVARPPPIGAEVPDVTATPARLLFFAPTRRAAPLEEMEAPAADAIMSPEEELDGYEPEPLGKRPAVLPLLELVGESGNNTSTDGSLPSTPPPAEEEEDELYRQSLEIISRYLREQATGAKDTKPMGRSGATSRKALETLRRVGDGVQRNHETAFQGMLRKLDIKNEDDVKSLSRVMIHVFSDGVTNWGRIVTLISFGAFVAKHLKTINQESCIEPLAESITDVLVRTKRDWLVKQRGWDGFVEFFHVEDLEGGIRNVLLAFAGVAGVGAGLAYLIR

Bcl-2-like protein 1 = Bcl-2-like protein 1 (Homo sapiens, UniProt Q07817); assay: blockers of BCLXL peptide binding – biochemical, fluorescence polarization, 1536-well, selectivity assay for MCL1 inhibitor project, dose response (AID 2218)
Bcl-2-like protein 1, sequence (Q07817 whole entry): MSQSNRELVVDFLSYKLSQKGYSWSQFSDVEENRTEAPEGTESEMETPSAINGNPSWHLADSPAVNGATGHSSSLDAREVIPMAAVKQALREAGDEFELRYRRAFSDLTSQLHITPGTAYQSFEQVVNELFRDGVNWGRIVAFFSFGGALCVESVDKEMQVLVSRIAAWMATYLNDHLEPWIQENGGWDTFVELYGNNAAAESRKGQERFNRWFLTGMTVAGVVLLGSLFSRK

Caspase-3 = biological target: T3, Caspase-3 (Homo sapiens, UniProt P42574); assay: activation of caspase-3 zymogen – biochemical, absorbance, dose response (AID 489014)
T3 sequence (P42574 whole entry): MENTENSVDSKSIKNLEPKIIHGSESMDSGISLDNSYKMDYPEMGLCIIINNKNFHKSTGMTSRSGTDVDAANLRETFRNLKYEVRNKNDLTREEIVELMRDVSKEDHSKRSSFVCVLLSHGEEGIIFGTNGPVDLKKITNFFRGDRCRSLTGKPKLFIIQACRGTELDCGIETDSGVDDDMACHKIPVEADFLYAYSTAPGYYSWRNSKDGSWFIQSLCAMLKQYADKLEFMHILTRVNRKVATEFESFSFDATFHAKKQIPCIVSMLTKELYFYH

[6] = Luminescence Cell-Based Dose Retest to Confirm Inhibitors of Cancer Stem Cells. [Related pubchem assays (depositor defined):AID2717, AID2721]; format: functional; details: Homo sapiens
Caspase-7 = Caspase-7 (Homo sapiens, UniProt P55210); assay: activation of caspase-7 zymogen – biochemical, absorbance, counter-screen for procaspase-3 activator project, dose response (AID 489013)
Caspase-7, sequence (P55210 24-198 limits assumed): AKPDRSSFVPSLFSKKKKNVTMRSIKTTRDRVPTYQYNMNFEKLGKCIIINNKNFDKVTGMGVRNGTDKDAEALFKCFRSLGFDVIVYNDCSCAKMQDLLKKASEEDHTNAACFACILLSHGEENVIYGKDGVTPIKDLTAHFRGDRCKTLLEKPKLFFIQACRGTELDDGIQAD
Caspase-7, sequence (P55210 207-303 limits assumed): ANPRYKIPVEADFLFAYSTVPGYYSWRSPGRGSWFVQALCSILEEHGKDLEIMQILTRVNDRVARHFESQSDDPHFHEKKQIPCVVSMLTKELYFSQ

[7] = biological target: T4, Runt-related transcription factor 1/Core-binding factor subunit beta (Homo sapiens, UniProt Q01196+Q13951); assay: disruptors of Runt domain/CBFb-SMMHC interaction – biochemical, FRET, Cerulean-Runt, Venus-CBFb-SMMHC, uHTS, […] (AID 1434); format: protein assay
T4 sequence (Q01196 whole entry, the tested form may be a part): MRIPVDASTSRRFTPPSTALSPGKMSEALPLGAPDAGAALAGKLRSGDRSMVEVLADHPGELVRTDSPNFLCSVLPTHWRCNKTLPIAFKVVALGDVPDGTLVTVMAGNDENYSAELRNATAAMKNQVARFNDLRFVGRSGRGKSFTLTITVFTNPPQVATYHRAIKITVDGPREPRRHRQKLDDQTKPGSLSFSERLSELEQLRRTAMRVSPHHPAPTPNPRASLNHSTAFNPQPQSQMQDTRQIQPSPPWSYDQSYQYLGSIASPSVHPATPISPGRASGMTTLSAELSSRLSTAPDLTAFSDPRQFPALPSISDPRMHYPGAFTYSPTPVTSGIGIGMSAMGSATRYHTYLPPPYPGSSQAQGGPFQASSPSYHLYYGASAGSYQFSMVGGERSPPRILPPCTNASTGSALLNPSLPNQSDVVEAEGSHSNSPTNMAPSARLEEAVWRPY
T4 sequence (Q13951 whole entry, the tested form may be a part): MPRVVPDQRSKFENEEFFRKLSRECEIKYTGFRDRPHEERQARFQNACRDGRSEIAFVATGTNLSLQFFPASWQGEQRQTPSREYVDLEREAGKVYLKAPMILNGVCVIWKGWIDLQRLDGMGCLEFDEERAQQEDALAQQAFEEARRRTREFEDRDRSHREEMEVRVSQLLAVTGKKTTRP

[8] = biological target: T4, Runt-related transcription factor 1/Core-binding factor subunit beta; assay: Runt domain/CBFb-SMMHC interaction disruptors – biochemical, TR-FRET (AID 1438); format: protein assay
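Throughout, for AC50: cells exposed to compound for roughly 70 hours or longer before luminescence read.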

In the case of `CCOc1ccc(C(=O)Nc2nc3ccccc3[nH]2)cc1OCC`, the CC50 [1] is reported as > 40 µM (active), the CC50 [2] is reported as 18.8 µM (active) and the IC50 (cells) is reported as 12 µM (active).

In the case of `O=C(Cn1sc2ccccc2c1=O)Nc1cccc(C(F)(F)F)c1`, the IC50 (Hexokinase) is reported as > 25 µM (inactive).

For `COC(=O)c1ccccc1NCc1cc(=O)oc2cc(O)c(O)cc12`, the EC50 [3] was 19 µM (inconclusive), the EC50 [4] was 18.4 µM (inconclusive) and the IC50 [5] was > 4.03 µM (active). The IC50 (Bcl-2-like protein 1) was > 109 µM (not active), the EC50 (Caspase-3) was > 1.05 µM (active) and the AC50 [6] was 6.97 µM (active). The EC50 (Caspase-7) was > 85.2 µM (inactive).

In the case of `N#Cc1c2c(c(NCc3ccco3)n3c1nc1ccccc13)CCC2`, the IC50 [7] is reported as > 100 µM (inactive) and the IC50 [8] is reported as > 100 µM (inactive).
